Experimental data reported in publication PMC6085350, “Small molecule inhibitors of RAS-effector protein interactions derived using an intracellular antibody fragment” (Nature Communications, 2018).
“Also recorded” adds a separate entry of the source.

Legend:
[1] = biological target: T1, KRAS^G12V-GppNHp + scFv complex (Homo sapiens, UniProt P01116, G12V); assay: waterLOGSY NMR competition with anti-RAS scFv; type: binding
T1 construct: GST (N); made in house; host or cells: E. coli
Procedure: The waterLOGSY NMR method[35] was used to measure RAS ligand interaction. WaterLOGSY experiments were conducted at a ^1H frequency of 600 MHz using a Bruker Avance spectrometer equipped with a BBI probe. All experiments were conducted at 298 K, 3 mm diameter NMR tubes with a sample final volume of 200 µl was used in all experiments. Solutions were buffered using an H2O 10 mM PBS, 5 mM MgCl2 buffer corrected to pH 7.4. The sample preparation is exemplified as follows, the compound (10 µl of a […] solution in DMSO-d6) was added to an eppendorf before sequential addition of the H2O PBS buffer (163.6 µl), D2O (20 µl), and protein (6.4 µl, 311.8 µM). The resulting solution was spun to ensure full mixing and transferred to a 3 mm NMR tube before running the experiment. For a competition experiment using Y6-scFv or VH, the preparation was carried out in a similar manner; the compound (10 µl of a 10 mM solution in DMSO-d6) was added to an eppendorf before sequential addition of the H2O PBS buffer (146.4 µl), D2O (20 µl), protein (6.4 µl, 311.8 µM) and Y6-ScFv (17.2 µl, 116.6 µM) with a ratio of 5.5:1:1. The resulting solution was spun and transferred to a 3 mm NMR tube before the run. […]
Supplementary Figure 3: Abd-2 WaterLOGSY NMR with and without anti RAS-scFV Abd-2 was analyzed by waterLOGSY. […]

[2] = tested on: RAS-effector PPI; assay: RAS biosensor BRET assay (partners not specified); type: cell-based, human
Procedure: The BRET assay was carried out as described elsewhere. A total of 650,000 HEK293T were seeded in each well of a six well plate. Approximately, 24 h later, cells were transfected with an appropriated BRET-based RAS biosensor (i.e. RAS-effector) using Lipofectamine 2000 transfection reagent (Thermo-Fisher). Cells were detached 24 h later and washed with PBS and seeded in a white 96 well plate (clear bottom, PerkinElmer, cat#6005181) in OptiMEM no phenol red medium (Life Technologies) complemented with 4% FBS. Cells were left for 4 h at 37 °C before adding compounds. […] The final concentrations in the cells were 0, 5, 10 and 20 μM (therefore the intermediate 10X concentrations were 0, 50, 100 and 200 μM. Furthermore, 10 μl of 10X compounds were added in each well of the 96 well plate to 0, 5, 10 and 20 μM final concentrations (with final 0.2% DMSO each). Quadruplicates were performed for each point. Cells were left for an additional 20 h at 37 °C before the BRET2 signal reading directly after addition of Coelenterazine 400a substrate (10 μM final) to cells (Cayman Chemicals, cat#16157). BRET2 reading was carried out on an Envision instrument (2103 Multilabel Reader, PerkinElmer) with the BRET2 Dual Emission optical module (515 nm ± 30 and 410 nm ± 80; PerkinElmer).

[3] = biological target: PI3KC2; assay: Kinase panel (KinaseProfiler), second PI3KC2 line; type: biochemical, human; conditions: PI3KC2 (second of two lines), 10μM
Procedure: Experiments were performed by Eurofins Pharma Discovery Services. The KinaseProfiler™ assay protocol guide can be downloaded from their website: www.eurofins.com/discoveryservices. The guide contains information on the buffer conditions, substrate and reference inhibitor blank used for each kinase.
Supplementary Table 3. Assessment of potential interaction of Abd-7 with a human kinase
Kinase % kinase activity in
A panel of 14 Kinases (relevant to the RAS pathway) has been screened against Abd-7
(10μM) and the kinase activity was measured. […] of activity was observe for all
function of the selected and RAS relevant kinase proteins.

% kinase activity in the presence of Abd-7 [3] [%]	Compound	binding to KRAS^G12V-GppNHp in the presence of anti-RAS scFv (waterLOGSY) [1]	activity in the RAS biosensor BRET assay [2]
–	O=C(NCC1COc2ccccc2O1)c1ccco1 (stereo not drawn) [Abd-2]	no longer binds; also recorded: no binding	do not show activity
108	COc1nc(-c2cccc3c2OCCO3)ccc1Nc1ccc(CN(C)C)cc1 [Abd-7]	–	–
